From patent US10933002B2, “Preservation booster” (DSM IP ASSETS B.V., priority 2017, dated 2021)

System: Escherichia coli
Assay: antimicrobial efficacy in analogy to the regulatory challenge test method (NF EN ISO11930)
Type: cell-based
Conditions: 0.2 wt.-% test solution in physiological serum; 24 h after contamination; 22° C.; initial contamination 580000 cfu/ml
Experimental: The term “antimicrobial activity” (or “antimicrobial effect”) as used herein means a capability of killing and/or inhibiting the growth of pathogenic or unwanted bacteria, such as in particular Escherichia coli (Escherichia coli ATCC 8739). The applied measuring method is NF EN IS011930. The antimicrobial efficacy is assessed in analogy to the regulatory challenge test method (NF EN ISO11930). Thus, solutions of the respective active(s) in ethanol are prepared and further dissolved in physiological serum with 0.85 wt.-% NaCl in the concentrations as outlined in table 1 under sterile conditions. Samples containing phytantriol were solubilized in physiological serum supplemented with 10 wt.-% ethanol, samples containing erythrulose only were solubilized in physiological serum supplemented with 1 wt.-% ethanol. The solutions of the active(s) were deposed in 96-deep well plates (1.6 ml/well). The wells are contaminated with the Escherichia coli at 1.5*10^5 to 1*10^6 cfu/ml to obtain the initial contamination as outlined in table 1. After the contamination, each well was thoroughly mixed to ensure a homogeneous distribution of E. coli. Then each plate was incubated at 22° C. for 24 h. The counting of the (remaining) population is carried out 24 h after contamination.

Compound	Escherichia coli colony count	Log reduction
CC(C)CCCC(C)CCCC(C)CCCC(C)(O)C(O)CO (stereo not shown) [phytantriol, 3,7,11,15-tetramethyl-1,2,3-hexadecanetriol]	1000 cfu/ml	−2.763
O=C(CO)[C@H](O)CO (racemic) [erythrulose]	33700 cfu/ml	−1.236
